Measurements published in paper PMC11497264 (Chembiochem, 2024).
Where two headings read alike, the source gives them in different places. Bridge positions count the residues as written; N and C are the ends. Peptide text beside a SMILES is read from it.

Assays:
[1] = biological target: T1, GRP78:S1 interaction (Homo sapiens, UniProt P11021); test: biochemical; format: binding, human GRP78 / SARS-CoV-2 S1
T1 construct: The full length human GRP78 protein recombinantly produced in Escherichia coli; purchased Abcam (GRP78); Peak Proteins Ltd (S1); host or cells: Escherichia coli (GRP78); HEK293 (S1)

[2] = biological target: T2, human GRP78 (Homo sapiens, UniProt P11021); test: biochemical; format: binding; settings: for kon: read-out: Ka1 (association rate constant 1)
T2 construct: The full length human GRP78 protein recombinantly produced in Escherichia coli; 6xHis (inferred from capture on nickel-NTA chip); purchased Abcam (Cambridge, UK); host or cells: Escherichia coli

[3] = read-out: Kd1 (dissociation rate constant 1)
[4] = read-out: Kd2 (dissociation rate constant 2)

T2 sequence (P11021 19-654): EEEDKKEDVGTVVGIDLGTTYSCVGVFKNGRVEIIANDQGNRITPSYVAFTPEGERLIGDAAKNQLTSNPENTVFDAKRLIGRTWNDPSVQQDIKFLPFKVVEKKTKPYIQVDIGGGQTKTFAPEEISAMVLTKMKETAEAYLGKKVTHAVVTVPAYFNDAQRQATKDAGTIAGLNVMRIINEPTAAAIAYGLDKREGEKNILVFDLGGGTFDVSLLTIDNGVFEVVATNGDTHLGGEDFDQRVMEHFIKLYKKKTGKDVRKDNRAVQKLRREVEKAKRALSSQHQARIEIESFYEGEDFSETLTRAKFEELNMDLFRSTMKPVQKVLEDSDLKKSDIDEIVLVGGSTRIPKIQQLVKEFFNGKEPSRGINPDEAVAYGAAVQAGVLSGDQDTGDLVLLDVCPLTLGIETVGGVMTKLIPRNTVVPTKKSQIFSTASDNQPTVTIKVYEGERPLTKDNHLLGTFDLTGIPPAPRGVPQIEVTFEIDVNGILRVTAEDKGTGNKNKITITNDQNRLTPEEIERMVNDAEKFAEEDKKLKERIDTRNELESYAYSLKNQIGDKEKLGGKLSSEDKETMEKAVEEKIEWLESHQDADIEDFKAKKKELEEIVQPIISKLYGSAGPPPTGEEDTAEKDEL
T1 sequence (P11021 19-654): as above

SMILES	IC50 [1]	Kd ([2]; KD (equilibrium dissociation constant))	Kd ([2]; affinity of binding to GRP78)	kon [2]	koff [2, 3]	koff [2, 4]
CC(C)[C@@H]1NC(=O)CNC(=O)[C@H](CC(N)=O)NC(=O)[C@@H](N)CSSC[C@@H](C(N)=O)NC(=O)[C@H](CC(N)=O)NC(=O)[C@H](Cc2ccccc2)NC(=O)CNC(=O)[C@H](C)NC1=O [LCP O] (H-CNGVAGFNC-NH2; disulfide 1-9)	< 0.003 mM	2.12 mM	2 mM	140 M⁻¹ s⁻¹	0.643 s⁻¹	0.00182 s⁻¹
CC(C)[C@@H]1NC(=O)CNC(=O)[C@H](CC(N)=O)NC(=O)[C@@H](N)CSSC[C@@H](C(N)=O)NC(=O)[C@H](CC(N)=O)NC(=O)[C@H](Cc2ccccc2)NC(=O)CNC(=O)[C@H](CCC(=O)O)NC1=O [LCP W] (H-CNGVEGFNC-NH2; disulfide 1-9)	< 0.003 mM		0.2 mM	1670 M⁻¹ s⁻¹	0.43 s⁻¹	0.03 s⁻¹
